# US11399455B1, “Cast pellets for planting seeds” (Ball Horticultural Company, priority 2010, dated 2022)
# Experiments:
# [1] = tested on: Impatiens Dazzler White seeds; test: Growth regulator in casting: germination and plant height; type: in vivo; settings: count date 11; for Germ (%): 25° C.
# Description: (§1) A single seed was placed in every mold cavity of a mold containing 108 cavities of dimensions 0.25 inch (6.4 mm) in length by 0.125 inch (3.2 mm) in width and 0.125 inch (3.2 mm) in depth. The following growth regulator concentrations were applied to seed via the casting method: 2 ppm, 4 ppm, and 8 ppm. PEG 4000 (100 g) was weighed out and put into a beaker. This was done four times. Each beaker with the PEG 4000 was heated to 111° F. until the PEG 4000 completely melted. The growth regulator concentrations were made by dissolving a given weight of the plant grown retardant ancymidol (α-cyclopropyl-α-(p-methoxyphenyl)-5-pyrimidinemethanol; A-REST) powder into 1 ml of acetone, as follows: 6.4 mg A-REST into 1 ml of acetone for 2 ppm; 12.8 mg A-REST into 1 ml of acetone for 4 ppm; and 25.6 mg A-REST into 1 ml acetone for 8 ppm. Once dissolved, the specified concentrations of A-REST were added to the beakers with the melted PEG and mixed on the heated stir plate until well blended; 65 μl was pipetted into the cavities that contained the seeds. Once the entire mold was filled it was set aside to cool. […] The castings were then removed from the mold.
# (§2) The 108 castings (seed plus PEG 4000) containing the A-REST concentrations, along with a cast only (no added A-REST) and a raw control, were sown in a plug tray to evaluate germination. Seeds were sown at 25° C. The plug trays were run through a watering tunnel and then put into a Stage 1 mist chamber. Upon radical emergence, the plugs were placed in a Stage 2 chamber. The amount of time in Stage 1 and Stage 2 was dependent on the crop.
# (§3) Plant height was measured and recorded on the same day seed germination was recorded.
# [2] = tested on: Marigolds African Marvel Orange seeds; test: as above; type: in vivo; settings: count date 10; for Germ (%): 25° C.
# Description: as §1, §2, §3
smiles,measurement,setting,value
"COc1ccc(C(O)(c2cncnc2)C2CC2)cc1 (stereo not drawn) [A-REST, α-cyclopropyl-α-(p-methoxyphenyl)-5-pyrimidinemethanol]",Germ (%),[1]; 2 ppm in PEG 4000 casting,96%
same,Ave. Height (mm),[1]; 2 ppm in PEG 4000 casting,13 mm
same,Germ (%),[1]; 4 ppm in PEG 4000 casting,94%
same,Ave. Height (mm),[1]; 4 ppm in PEG 4000 casting,11 mm
same,Germ (%),[1]; 8 ppm in PEG 4000 casting,99%
same,Ave. Height (mm),[1]; 8 ppm in PEG 4000 casting,9 mm
same,Germ (%),[2]; 2 ppm in PEG 4000 casting,98%
same,Ave. Height (mm),[2]; 2 ppm in PEG 4000 casting,12 mm
same,Germ (%),[2]; 4 ppm in PEG 4000 casting,87%
same,Ave. Height (mm),[2]; 4 ppm in PEG 4000 casting,12 mm
same,Germ (%),[2]; 8 ppm in PEG 4000 casting,82%
same,Ave. Height (mm),[2]; 8 ppm in PEG 4000 casting,12 mm
